Source: US20080171370A1, “DETOXIFYING PRE-TREATED LIGNOCELLULOSE-CONTAINING MATERIALS” (Novozymes North America, Inc., priority 2006, published 2008)
Entries after “also recorded” stand apart in the source; their conditions may differ.

Key:
[1] = tested on: RED STAR Ethanol Red yeast; experiment: Fermentation of detoxified fully unwashed pretreated corn stover (fuwPCS) filtrate, Example 1; type: cell-based; details: for average ethanol yield: 24 hours fermentation, 0.2 g/L yeast, 32° C., pH 5.0
Experimental: Yeast Preparation: Freeze-dried RED STAR™ Ethanol Red yeast re-hydrated in 10×YP media for 30 minutes at 32° C. It was dosed into the fermentations at a dose of 0.2 g/L.
Dilute acid steam exploded corn stover (PCS) was diluted with water and adjusted to pH 5.0 with NH4OH. The total solids (TS) level was 15 wt.-%. This sample was then saccharified for 63 hours at 50° C. with Cellutolytic Preparation A. Penicillin was added at a rate of 1 gl/L also added prior to saccharification was citrate buffer at a rate of 50 mL of 1 M citrate buffer per 100 ml of substrate. Following the saccharification step, the sample was filtered via a 0.2 micron Nalgene vacuum fitter system (Product # 8-000043-0803) to remove the solids and used for fermentation. The fuwPCS was then pipetted into separate sterile, 15 mL conical centrifuge tubes containing a small CO2 vent hole.
The pH was adjusted to about 2 using H2SO4; gallic acid was dosed at concentrations of 2 mM (GaA-L) and at 10 mM (GaA-H). The gallic acid was prepared by sonicating […] of garlic acid in 100 ml of de-ionized water. The broth was allowed to stand at 20° C. overnight and then readjusted to pH 5 using NaOH before adding yeast.
The dosing for amidase was carried out by treating with 5.6 Units/5 g substrate (AMD-L) and also 56 Units/5 g substrate (AMD-H). The amidase treated samples were brought to a pH of 7 with NaOH and allowed to sit in an oven at a temperature of 37° C. for 18 hours as a pre-treatment.
Fermentations were carried out in sterile 15 mL conical plastic centrifuge tubes at 32° C. for 48 hours at pH 5.0. A total of 5 grams of sample was fermented for each treatment. Treatments were run in triplicate.
Fermentation samples were collected after 24 hours for the 0.2 g/L yeast dose and analyzed for acetic acid and ethanol using an Agilent HPLC System with an analytical BIO-RAD Aminex HPX-87H column and a BIO-RAD Cation H refill guard column.

[2] = tested on: RED STAR Ethanol Red yeast; experiment: Fermentation of enzyme-detoxified fuwPCS filtrate at 37° C., Example 2; type: cell-based; details: detoxified 19 hours
Experimental: Dilute acid steam exploded corn stover (PCS) was diluted with water and adjusted to pH 5.0 with NH4OH. The total solids (TS) level was 16%. This sample was then saccharified for 72 hours at 50° C. with Cellulolytic Preparation A. Penicillin and citrate buffer were also added prior to saccharification. Following the saccharification step, the sample was filtered to remove the solids and the filtrate was used for fermentation. The fuwPCS was then pipetted into separate sterile, 15 mL conical centrifuge tubes containing a small CO2 vent hole.
Freeze-dried RED STAR™ Ethanol Red yeast was re-hydrated in 10×YP media for 30 minutes at 32° C. it was dosed into the fermentations at a dose of 0.2 g/L.
Filtered, unwashed PCS was detoxified for 19 hours using the optimal conditions for each enzyme. For amidase, the pH of the fuwPCS was first adjusted up to 7.0 using NaOH, the amidase was added at the tested dosages, and the tubes were incubated at 37° C. The pH of the fuwPCS was then readjusted to 5.0 using H2SO4 prior to fermentation. For the carbonic anhydrase the pH was left at 5.0, the enzyme was added and the tubes were incubated at 37° C. All enzymes were diluted with de-ionized water prior to dosing. Dosing ranges for each enzyme were as follows in units/mL of the final solution for amidase and kilo units/mL for carbonic anhydrase.
A total of 3.5 grams of sample was fermented for each treatment and the initial pH for all fermentations was 5.0. Treatments were run in triplicate. The final TS level was 13.7 wt.-%. These fermentations were run at a higher temperature of 37° C.
Fermentation samples were collected after 12 and 24 hours and analyzed for ethanol using an Agilent HPLC System with an analytical BIO-RAD Aminex HPX-87H column and a BIO-RAD Cation-H refill guard column.

Compound: O=C(O)c1cc(O)c(O)c(O)c1 [Gallic acid, 3,4,5-trihydroxybenzoic acid]
- average ethanol yield ([1]; gallic acid high dose (GaA-H) 10 mM, pH about 2, 20° C. overnight): 17.8 g/L
- average ethanol yield ([1]; gallic acid low dose (GaA-L) 2 mM, pH about 2, 20° C. overnight): 19.4 g/L
- amount of acetic acid present in the fermentation ([1]; gallic acid versus control, FIG. 2): significant drop

Compound: amidase: amidase from Pseudomonas aeruginosa (Sigma Product # A6691)
- average ethanol yield ([1]; amidase high dose (AMD-H) 56 Units/5 g substrate, pre-treatment pH 7, 37° C., 18 hours): 23.6 g/L
- average ethanol yield ([1]; amidase low dose (AMD-L) 5.6 Units/5 g substrate, pre-treatment pH 7, 37° C., 18 hours): 21.8 g/L
- effect on ethanol production by the yeast ([2]; all amidase doses tested (0.3-1.1-5.4-16.1), pH 7.0, 37° C., after 12 hours of fermentation): significant boosting effect
- effect on ethanol production by the yeast ([2]; all amidase doses tested (0.3-1.1-5.4-16.1), pH 7.0, 37° C., after 24 hours of fermentation): boost in ethanol yield; also recorded: significant boosting effect

Compound: carbonic anhydrase: carbonic anhydrase from bovine erythrocytes (lyophilized powder, ≧2,500 W-A units/mg protein) Sigma Product # C3934
- effect on ethanol production by the yeast ([2]; highest dose of carbonic anhydrase (33.3; 243 kilo units/g TS), pH 5.0, 37° C., after 12 hours of fermentation): boost in ethanol production; also recorded: significant boosting effects
- effect on ethanol production by the yeast ([2]; highest dose of carbonic anhydrase (33.3; 243 kilo units/g TS), pH 5.0, 37° C., after 24 hours of fermentation): significant boosting effects
